Reference: ChEMBL document CHEMBL4330149, “Lignan Dimers from Forsythia viridissima Roots and Their Antiviral Effects” (J Nat Prod, 2019)

How the values were obtained:
rhinovirus A1B = test: Antiviral activity against Human rhinovirus 1B infected in human HeLa cells assessed as reduction in virus-induced cytopathic effect after 2 days by SRB staining based microscopic method; format: functional, organism-based; conditions: Rhinovirus A, 48 h
[1] = Cytotoxicity against human HeLa cells assessed as growth inhibition after 2 days by SRB assay; format: cell-based
[2] = Selectivity index, ratio of CC50 for human HeLa cells to IC50 for Human rhinovirus 1B infected in human HeLa cells; format: toxicity, cell-based; conditions: read-out: Ratio CC50/IC50
Coxsackievirus B3 = test: Antiviral activity against Coxsackievirus B3 infected in African green monkey Vero cells assessed as reduction in virus-induced cytopathic effect after 2 days by SRB staining based microscopic method; format: functional, organism-based; conditions: Enterovirus B, 48 h
[3] = Cytotoxicity against African green monkey Vero cells assessed as growth inhibition after 2 days by SRB assay; format: cell-based; conditions: chlorocebus sabaeus
[4] = Selectivity index, ratio of CC50 for African green monkey Vero cells to IC50 for Coxsackievirus B3 infected in African green monkey Vero cells; format: toxicity; conditions: read-out: Ratio CC50/IC50

Question: For `COc1ccc(C[C@H]2COC(=O)[C@@H]2Cc2ccc(Oc3cc(C[C@H]4C(=O)OC[C@@H]4Cc4ccc(OC)c(OC)c4)cc(OC)c3O)c(OC)c2)cc1OC`, which IC50 (rhinovirus A1B) is on record?
Answer: 13 µM

Question: What about the CC50 at 48 h [1] of the same compound?
Answer: > 50 µM

Question: And the selectivity ratio [2]?
Answer: > 3.8

Question: For `COc1cc(C[C@H]2COC(=O)[C@@H]2Cc2cc(OC)c(O)c(-c3cc(C[C@H]4C(=O)OC[C@@H]4Cc4ccc(OC)c(OC)c4)cc(OC)c3O)c2)ccc1O`, which IC50 (rhinovirus A1B) is on record?
Answer: 47.5 µM

Question: What about the CC50 at 48 h [1] of the same compound?
Answer: > 50 µM

Question: What about the selectivity ratio [2] of the same compound?
Answer: > 1.1

Question: For `COc1cc([C@@H](OC)[C@@H]2CO[C@H](c3ccc(O)c(OC)c3)[C@@H]2CO)ccc1O` (relative stereo), which IC50 (Coxsackievirus B3) is on record?
Answer: 15.4 µM

Question: What about the CC50 at 48 h [3] of the same compound?
Answer: > 50 µM

Question: And the selectivity ratio [4]?
Answer: > 3.2

Question: With `COc1cc(C[C@H]2C(=O)OC[C@@H]2Cc2cc(OC)c(O)c(-c3cc(C[C@H]4C(=O)OC[C@@H]4Cc4ccc(OC)c(OC)c4)cc(OC)c3O)c2)ccc1O` as the compound, how does the IC50 (rhinovirus A1B) read?
Answer: 45.7 µM

Question: What about the CC50 at 48 h [1] of the same compound?
Answer: > 50 µM

Question: What about the selectivity ratio [2] of the same compound?
Answer: > 1.1

Question: What does the source list for `COc1cc(C[C@H]2COC(=O)[C@@H]2Cc2ccc(O)c(OC)c2)ccc1O` [MATAIRESINOL]?
Answer: IC50 (rhinovirus A1B): 43.2 µM; CC50 at 48 h [1]: > 50 µM; selectivity ratio [2]: > 1.2

Question: With `CCOC(=O)/C=C/[C@H](C[C@@H]1CCNC1=O)NC(=O)[C@@H](CC(=O)[C@@H](NC(=O)c1cc(C)on1)C(C)C)Cc1ccc(F)cc1` [RUPINTRIVIR] as the compound, how does the IC50 (Coxsackievirus B3) read?
Answer: 6.6 µM

Question: What about the CC50 at 48 h [3] of the same compound?
Answer: > 50 µM

Question: What about the selectivity ratio [4] of the same compound?
Answer: > 7.6

Question: What about the CC50 at 48 h [1] of the same compound?
Answer: > 50 µM
